Among the data in patent publication US9346809B2 (LEO PHARMA A/S, priority 2009, dated 2016) are EC50 values, retold here.

Broadly, the EC50 is the concentration giving half of the maximal effect.

What all share (format): biochemical
Assay [1] concerns the target T1, JAK3 (catalytic domain, His-tag) (Homo sapiens, UniProt P52333).
T1 construct: All four purified enzymes contain only the catalytic domain; His (N); purchased Carna Biosciences, Inc; host or cells: baculovirus expression system
Briefly: JAK kinase assay (HTRF, phosphorylation of TK substrate-biotin), JAK3. The following applies: HTRF assay, ATP at Km (2 μM); read-out: JAK3 kinase inhibitory activity (EC50 indicator). In outline:
(§1)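 HTRF KinEASE TK format; 1 μM biotinylated peptide, Km ATP: 7 μM (JAK1, 10 mM MgCl2, 50 nM SEB), 4 μM (JAK2), 2 μM (JAK3), 13 μM (TYK2, 50 nM SEB); 5 mM MgCl2 for the latter three. RT 20-30 min, 0.75% DMSO final. Overnight detection, EC50.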

Assay [2] deals with T2, TYK2 (aa 871-1187, catalytic domain, GST-tag) (Homo sapiens, UniProt P29597).
T2 construct: JAK1 (aa 850-1154) and TYK2 (aa 871-1187) are expressed with an N-terminally fused GST-tag; GST (N); purchased Carna Biosciences, Inc; host or cells: baculovirus expression system
T2 sequence (P29597 871-1187): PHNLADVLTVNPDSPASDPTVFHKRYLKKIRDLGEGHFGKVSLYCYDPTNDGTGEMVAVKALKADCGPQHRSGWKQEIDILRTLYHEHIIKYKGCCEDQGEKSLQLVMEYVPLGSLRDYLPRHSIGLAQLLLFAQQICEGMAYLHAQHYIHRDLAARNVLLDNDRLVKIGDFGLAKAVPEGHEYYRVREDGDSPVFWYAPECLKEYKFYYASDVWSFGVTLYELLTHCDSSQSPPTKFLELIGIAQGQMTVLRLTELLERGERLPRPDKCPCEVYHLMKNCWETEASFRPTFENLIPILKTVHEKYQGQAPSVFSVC
Briefly: JAK kinase assay (HTRF, phosphorylation of TK substrate-biotin), TYK2. The conditions noted are these: HTRF assay, ATP at Km (13 μM); read-out: TYK2 kinase inhibitory activity (EC50 indicator). In outline:
as §1
(In TR-FRET formats the signal depends on donor and acceptor labels being close together.)

The target in assay [3] is T3, JAK1 (aa 850-1154, catalytic domain, GST-tag) (Homo sapiens, UniProt P23458).
T3 construct: JAK1 (aa 850-1154) and TYK2 (aa 871-1187) are expressed with an N-terminally fused GST-tag; GST (N); purchased Carna Biosciences, Inc; host or cells: baculovirus expression system
Kind of assay: JAK kinase assay (HTRF, phosphorylation of TK substrate-biotin), JAK1. The following applies: HTRF assay, ATP at Km (7 μM); read-out: JAK1 kinase inhibitory activity (EC50 indicator). The method in brief: as §1

Assay [4] concerns the target T4, JAK2 (catalytic domain, His-tag) (Homo sapiens, UniProt O60674).
T4 construct: All four purified enzymes contain only the catalytic domain; His (N); purchased Carna Biosciences, Inc; host or cells: baculovirus expression system
Kind of assay: JAK kinase assay (HTRF, phosphorylation of TK substrate-biotin), JAK2. The conditions noted are these: HTRF assay, ATP at Km (4 μM); read-out: JAK2 kinase inhibitory activity (EC50 indicator). The method in brief:
as §1

T1 sequence (P52333 822-1111 limits assumed): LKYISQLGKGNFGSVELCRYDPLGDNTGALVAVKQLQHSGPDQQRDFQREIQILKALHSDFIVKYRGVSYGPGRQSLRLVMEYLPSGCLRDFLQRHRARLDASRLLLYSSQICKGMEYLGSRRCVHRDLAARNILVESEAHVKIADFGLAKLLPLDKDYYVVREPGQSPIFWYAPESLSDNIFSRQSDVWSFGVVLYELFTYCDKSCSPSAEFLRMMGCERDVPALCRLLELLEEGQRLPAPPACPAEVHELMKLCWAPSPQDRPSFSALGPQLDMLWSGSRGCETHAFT
T3 sequence (P23458 850-1154): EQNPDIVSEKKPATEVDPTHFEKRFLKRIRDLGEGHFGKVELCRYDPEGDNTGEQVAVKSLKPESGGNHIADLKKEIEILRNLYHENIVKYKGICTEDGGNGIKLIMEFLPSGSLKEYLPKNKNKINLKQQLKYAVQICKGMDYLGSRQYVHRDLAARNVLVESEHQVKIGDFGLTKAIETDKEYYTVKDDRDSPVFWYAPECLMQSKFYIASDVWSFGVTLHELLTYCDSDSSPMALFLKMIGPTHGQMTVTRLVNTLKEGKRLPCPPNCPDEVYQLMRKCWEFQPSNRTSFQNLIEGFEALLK
T4 sequence (O60674 849-1124 limits assumed): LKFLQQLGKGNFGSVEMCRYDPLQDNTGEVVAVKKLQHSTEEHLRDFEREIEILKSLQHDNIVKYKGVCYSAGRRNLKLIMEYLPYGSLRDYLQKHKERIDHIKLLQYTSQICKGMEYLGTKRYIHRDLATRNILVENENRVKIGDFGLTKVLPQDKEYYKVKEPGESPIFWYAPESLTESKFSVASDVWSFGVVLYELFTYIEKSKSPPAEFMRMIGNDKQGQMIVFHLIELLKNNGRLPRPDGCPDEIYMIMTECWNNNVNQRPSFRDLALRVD

On to `O=C(c1cc2cc(F)ccc2[nH]1)N1CCN(c2ncnc3[nH]ccc23)CC12CC2` [Example 361, (5-Fluoro-1H-indol-2-yl)-[7-(7H-pyrrolo[2,3-d]pyrimidin-4-yl)-4,7-diaza-spiro[2.5]oct-4-yl]-methanone], for which the EC50 in assay [1], in assay [2], in assay [3] and in assay [4] was below 0.1 µM each time.

Regarding `O=C(c1cc2cccc(F)c2[nH]1)N1CCN(c2ncnc3[nH]ccc23)CC12CC2` [Example 362, (7-Fluoro-1H-indol-2-yl)-[7-(7H-pyrrolo[2,3-d]pyrimidin-4-yl)-4,7-diaza-spiro[2.5]oct-4-yl]-methanone], the EC50 was below 0.1 µM in assay [1], 0.1 to 0.5 µM in assay [2], below 0.1 µM in assay [3] and below 0.1 µM in assay [4].

As for `O=C(c1cc2ccc(F)cc2[nH]1)N1CCN(c2ncnc3[nH]ccc23)CC12CC2` [Example 363, (6-Fluoro-1H-indol-2-yl)-[7-(7H-pyrrolo[2,3-d]pyrimidin-4-yl)-4,7-diaza-spiro[2.5]oct-4-yl]-methanone], the EC50 in assay [1] was below 0.1 µM; in assay [2], 0.1 to 0.5 µM; in assay [3], below 0.1 µM; in assay [4], below 0.1 µM.

With `CS(=O)(=O)c1ccc(C(=O)N2CCN(c3ncnc4[nH]ccc34)CC23CC3)cc1` [Example 364, (4-Methanesulfonyl-phenyl)-[7-(7H-pyrrolo[2,3-d]pyrimidin-4-yl)-4,7-diaza-spiro[2.5]oct-4-yl]-methanone], the EC50 in assay [1] is 0.1 to 0.5 µM; in assay [2] it was 0.1 to 0.5 µM; in assay [3], below 0.1 µM; in assay [4], below 0.1 µM.

Consider `CS(=O)(=O)c1ccc2[nH]c(C(=O)N3CCN(c4ncnc5[nH]ccc45)CC34CC4)cc2c1` [Example 365, (5-Methanesulfonyl-1H-indol-2-yl)-[7-(7H-pyrrolo[2,3-d]pyrimidin-4-yl)-4,7-diaza-spiro[2.5]oct-4-yl]-methanone], for which the EC50 in assay [1], in assay [2], in assay [3] and in assay [4] was below 0.1 µM in each case.

Turning to `CS(=O)(=O)c1cc(C(=O)N2CCN(c3ncnc4[nH]ccc34)CC23CC3)ccc1F` [Example 366, (4-Fluoro-3-methanesulfonyl-phenyl)-[7-(7H-pyrrolo[2,3-d]pyrimidin-4-yl)-4,7-diaza-spiro[2.5]oct-4-yl]-methanone], the concentration giving a half-maximal response (EC50) is 0.1 to 0.5 µM in assay [1], above 0.5 µM in assay [2], below 0.1 µM in assay [3] and below 0.1 µM in assay [4].

Regarding `CS(=O)(=O)c1cccc(C(=O)N2CCN(c3ncnc4[nH]ccc34)CC23CC3)c1` [Example 367, (3-Methanesulfonyl-phenyl)-[7-(7H-pyrrolo[2,3-d]pyrimidin-4-yl)-4,7-diaza-spiro[2.5]oct-4-yl]-methanone], the EC50 in assay [1] was 0.1 to 0.5 µM; in assay [2], 0.1 to 0.5 µM; in assay [3], below 0.1 µM; in assay [4] it was below 0.1 µM.

On to `O=C(c1cc2c(F)cccc2[nH]1)N1CCN(c2ncnc3[nH]ccc23)CC12CC2` [Example 368, (4-Fluoro-1H-indol-2-yl)-[7-(7H-pyrrolo[2,3-d]pyrimidin-4-yl)-4,7-diaza-spiro[2.5]oct-4-yl]-methanone], for which the EC50 in assay [1] is 0.1 to 0.5 µM; in assay [2] it was 0.1 to 0.5 µM; in assay [3], below 0.1 µM; in assay [4], below 0.1 µM.

As for `NS(=O)(=O)c1ccc(C(=O)N2CCN(c3ncnc4[nH]ccc34)CC23CC3)cc1` [Example 369, 4-[7-(7H-Pyrrolo[2,3-d]pyrimidin-4-yl)-4,7-diaza-spiro[2.5]octane-4-carbonyl]-benzenesulfonamide], the EC50 in assay [1], in assay [2], in assay [3] and in assay [4] was below 0.1 µM throughout.

Consider `CS(=O)(=O)c1ccc(C(=O)N2CCN(c3ncnc4[nH]ccc34)CC23CC3)cc1F` [Example 370, (3-Fluoro-4-methanesulfonyl-phenyl)-[7-(7H-pyrrolo[2,3-d]pyrimidin-4-yl)-4,7-diaza-spiro[2.5]oct-4-yl]-methanone], for which the EC50 is below 0.1 µM in assay [1], 0.1 to 0.5 µM in assay [2], below 0.1 µM in assay [3] and below 0.1 µM in assay [4].

In the case of `NS(=O)(=O)c1cccc(C(=O)N2CCN(c3ncnc4[nH]ccc34)CC23CC3)c1` [Example 371, 3-[7-(7H-Pyrrolo[2,3-d]pyrimidin-4-yl)-4,7-diaza-spiro[2.5]octane-4-carbonyl]-benzenesulfonamide], the EC50 in assay [1], in assay [2], in assay [3] and in assay [4] was below 0.1 µM each time.

As to `NS(=O)(=O)c1csc(C(=O)N2CCN(c3ncnc4[nH]ccc34)CC23CC3)c1` [Example 372, 5-[7-(7H-Pyrrolo[2,3-d]pyrimidin-4-yl)-4,7-diaza-spiro[2.5]octane-4-carbonyl]-thiophene-3-sulfonic acid amide], the EC50 in assay [1], in assay [2], in assay [3] and in assay [4] was below 0.1 µM each time.

Take `CNS(=O)(=O)c1csc(C(=O)N2CCN(c3ncnc4[nH]ccc34)CC23CC3)c1` [Example 373, 5-[7-(7H-Pyrrolo[2,3-d]pyrimidin-4-yl)-4,7-diaza-spiro[2.5]octane-4-carbonyl]-thiophene-3-sulfonic acid methylamide]: the EC50 in assay [1], in assay [2], in assay [3] and in assay [4] was below 0.1 µM each time.

For the compound `Cc1sc(C(=O)N2CCN(c3ncnc4[nH]ccc34)CC23CC3)cc1S(N)(=O)=O` [Example 374, 2-Methyl-5-[7-(7H-pyrrolo[2,3-d]pyrimidin-4-yl)-4,7-diaza-spiro[2.5]octane-4-carbonyl]-thiophene-3-sulfonic acid amide], the EC50 in assay [1], in assay [2], in assay [3] and in assay [4] was below 0.1 µM throughout.

As to `CNS(=O)(=O)c1cc(C(=O)N2CCN(c3ncnc4[nH]ccc34)CC23CC3)sc1C` [Example 375, 2-Methyl-5-[7-(7H-pyrrolo[2,3-d]pyrimidin-4-yl)-4,7-diaza-spiro[2.5]octane-4-carbonyl]-thiophene-3-sulfonic acid methylamide], the EC50 in assay [1] is below 0.1 µM; in assay [2], 0.1 to 0.5 µM; in assay [3], below 0.1 µM; in assay [4], below 0.1 µM.

`CNS(=O)(=O)c1csc(C(=O)N2CCN(c3ncnc4[nH]ccc34)CC23CC3)c1C` [Example 376, 4-Methyl-5-[7-(7H-pyrrolo[2,3-d]pyrimidin-4-yl)-4,7-diaza-spiro[2.5]octane-4-carbonyl]-thiophene-3-sulfonic acid methylamide]: the EC50 was below 0.1 µM in assay [1], 0.1 to 0.5 µM in assay [2], below 0.1 µM in assay [3] and below 0.1 µM in assay [4].

In the case of `CCCNS(=O)(=O)c1ccc(C(=O)N2CCN(c3ncnc4[nH]ccc34)CC23CC3)cc1` [Example 377, N-Propyl-4-[7-(7H-pyrrolo[2,3-d]pyrimidin-4-yl)-4,7-diaza-spiro[2.5]octane-4-carbonyl]-benzenesulfonamide], the half-maximal effective concentration (EC50) is below 0.1 µM in assay [1], 0.1 to 0.5 µM in assay [2], below 0.1 µM in assay [3] and below 0.1 µM in assay [4].
